Laboratory results as given in PubChem BioAssay (NCI).
Where “and” joins values, the source holds several entries; their conditions need not be identical. Equal entries are not always repeated.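 Dose response: 5 concentrations. Exposure: 48 h. Format: 96-well plates. Endpoint: linear interpolation; highest concentration if not reached. The concentration for 50% growth inhibition is given as GI50. TGI: concentration producing complete growth inhibition.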

Tested on: SNB-19 CNS
Experiment: inhibition of tumour cell growth, NCI panel, 48 h

Structure (SMILES)	TGI [µM]
CC(=O)O/N=C(/C)c1ccccc1O	> 100
CC(=O)OCCOCNC(=S)N/N=C(\C)c1cnccn1	> 100
O=C(Nc1ccccc1-c1nn(C(=S)Nc2ccccc2)c(=S)n(C(=S)Nc2ccccc2)c1=O)C(F)(F)F	> 100
O=c1c(-c2ccccc2)c2oc(c1-c1ccccc1)CSCc1cccc(c1)CSC2	> 100
CN(C)CCn1c2c3ccccc3ccc2c2oc(=O)c3ccccc3c21	29.4

Tested on: MALME-3M melanoma
Experiment: inhibition of tumour cell growth, NCI panel, 48 h

Structure (SMILES)	TGI [µM]	GI50 [µM]
COC(=O)CC(c1ccccc1)C1(c2ccccc2)SCCS1 (stereo not given)	> 290	
CCOC(=O)C1=C(C(=O)OCC)C2c3ccccc3C=CN2C(C(=O)OCC)=C(SC)S1 (stereo not given)	> 100	
CCCCCCCCCCCCCCCC[N+](C)(C)Cc1ccccc1	2.72	1.24
CC(=O)NNc1nc(C)c(C(=O)/C=C/c2ccc(NC(C)=O)cc2)s1	> 100	
CCCCCC[C@@H]1CCC2C(CO)[C@@H](O)CC[C@@H]2C1 (stereo not given in full)	36.1	
NC(=O)c1ccccc1NC(=O)C(=O)C(C(=O)c1ccc(Cl)c(Cl)c1)C1OC(=O)c2ccccc21 (stereo not given)	80.4	
S=c1sc2c(n1-c1ccccc1)NC=NC2S (stereo not given)	> 100	
Cc1ccc(/C=C/C(=O)CCN(C)C)cc1	39.7	
Cc1ccc(Oc2ccc(C)cc2N)cc1	> 100	
c1ccc(NCn2cnc3ccccc32)cc1	> 100	
N#C/C(=C\c1cccc(Cl)c1Cl)c1ccccc1	> 70	
C/C(=N/Nc1ccc([N+](=O)[O-])cc1[N+](=O)[O-])C(CC(C(=O)NCc1ccccc1)/C(C)=N\Nc1ccc([N+](=O)[O-])cc1[N+](=O)[O-])C(=O)NCc1ccccc1 (stereo not given)	30.8	
N[C@@H]1CCCC[C@@H]1N.O=P([O-])([O-])CN(CCN(CP(=O)([O-])[O-])CP(=O)([O-])[O-])CP(=O)([O-])[O-].[Pt+2]	> 25	> 25
CCC(=C/[C@H](C)C/C=C/C(C)=C/[C@@H](C)C(=O)[C@@H](C)[C@H](O)[C@@H](C)CC)/C=C/[C@H]1OC(=O)C=C[C@@H]1C	0.175	< 0.01
COc1ccc(OC)c(N2CC(N)C2=O)c1 (stereo not given)	> 100	
Nc1ccccc1SC(CC(=O)c1ccccc1)c1cccc([N+](=O)[O-])c1 (stereo not given)	31.3	16.9
O=C(/C=C/c1ccc([N+](=O)[O-])cc1)c1ccc(NCc2nc3ccccc3[nH]2)cc1	28.3	
Cc1cccc(C)c1NC(=O)CCCC(=O)C1/C(=N/NC(=O)CC#N)CCC/C1=N\NC(=O)CC#N (stereo not given)	> 100	

Structure (SMILES)	TGI [µM]	GI50 [µM]
COc1ccc2nc(NC(=O)CSc3nnc4n3S(=O)(=O)c3ccccc3N4c3ccccc3)sc2c1	> 100	> 100
O=c1ccc2ccccc2cc1[O-].O=c1ccc2ccccc2cc1[O-].[O]=[U+2]=[O]	26.3	5.72
COC(=O)C(CCCN1C(=O)c2ccccc2C1=O)C(=O)OC	> 100	
COc1nc(NC2OC(COC(C)=O)C(OC(C)=O)C(OC(C)=O)C2OC(C)=O)c2c(OC(C)=O)cc(=O)oc2n1 (stereo not given)	> 100	
CC(C)(C)c1cc2c(O)c3cccc4c(=O)c5cccc6c5-c(c34)c2c(c1)c6=O	> 100	
COc1cc(/C(C#N)=C/c2nc3c(N4CCOCC4)nc(Cl)nc3n2C)cc(OC)c1OC	20.8	< 0.01
O=C1C=CC(=O)c2nc3c(cc21)CCC3	31.4	
O=S(=O)(N/N=C/c1cccc(/C=N/NS(=O)(=O)c2ccccc2)c1)c1ccccc1	> 100	
CCCCN(CCCC)C(=O)C(=O)C(C(=O)c1ccc(OC)cc1)c1ccc(OC)cc1 (stereo not given)	> 100	
C=C(C)CCOC(c1ccccc1)(c1ccccc1)c1ccccc1	> 100	
COc1ccc(C)cc1-c1cc(Sc2ccccc2)c(-c2cc(C)ccc2OC)o1	> 31.6	
CCn1c(-c2nonc2N)nc2c(C#CC(C)(C)O)nc(OC[C@@H](N)c3ccccc3)cc21	9.77	5.46
Cn1ccc2c3c(Oc4ccc(NC(N)=O)cc4)ccnc3ccc21	> 100	> 100
CC(=O)O/N=C(/C)c1ccccc1O	> 100	
CC(=O)OCCOCNC(=S)N/N=C(\C)c1cnccn1	> 100	
O=C(Nc1ccccc1-c1nn(C(=S)Nc2ccccc2)c(=S)n(C(=S)Nc2ccccc2)c1=O)C(F)(F)F	> 79.1	
O=c1c(-c2ccccc2)c2oc(c1-c1ccccc1)CSCc1cccc(c1)CSC2	> 100	
CN(C)CCn1c2c3ccccc3ccc2c2oc(=O)c3ccccc3c21	26.3	

Tested on: OVCAR-5 ovarian
Experiment: inhibition of tumour cell growth, NCI panel, 48 h

Structure (SMILES)	TGI [µM]	GI50 [µM]
COC(=O)CC(c1ccccc1)C1(c2ccccc2)SCCS1 (stereo not given)	> 290	
CCOC(=O)C1=C(C(=O)OCC)C2c3ccccc3C=CN2C(C(=O)OCC)=C(SC)S1 (stereo not given)	> 100	
CC(=O)NNc1nc(C)c(C(=O)/C=C/c2ccc(NC(C)=O)cc2)s1	> 100	
CCCCCC[C@@H]1CCC2C(CO)[C@@H](O)CC[C@@H]2C1 (stereo not given in full)	33.9	
NC(=O)c1ccccc1NC(=O)C(=O)C(C(=O)c1ccc(Cl)c(Cl)c1)C1OC(=O)c2ccccc21 (stereo not given)	> 100	
S=c1sc2c(n1-c1ccccc1)NC=NC2S (stereo not given)	> 100	
Cc1ccc(/C=C/C(=O)CCN(C)C)cc1	> 100	
Cc1ccc(Oc2ccc(C)cc2N)cc1	> 100	
c1ccc(NCn2cnc3ccccc32)cc1	> 100	
O=C(Oc1ccc(Cl)cc1)c1ccccc1Nc1ccnc(C(F)(F)F)c1	84.4	25.6
N#C/C(=C\c1cccc(Cl)c1Cl)c1ccccc1	> 100	
C/C(=N/Nc1ccc([N+](=O)[O-])cc1[N+](=O)[O-])C(CC(C(=O)NCc1ccccc1)/C(C)=N\Nc1ccc([N+](=O)[O-])cc1[N+](=O)[O-])C(=O)NCc1ccccc1 (stereo not given)	56.6	
COc1ccc(-c2cn[nH]c2-c2cc(OC)c(OC)c(OC)c2)cc1	36.9	0.0375
N[C@@H]1CCCC[C@@H]1N.O=P([O-])([O-])CN(CCN(CP(=O)([O-])[O-])CP(=O)([O-])[O-])CP(=O)([O-])[O-].[Pt+2]	> 25	> 25
CCC(=C/[C@H](C)C/C=C/C(C)=C/[C@@H](C)C(=O)[C@@H](C)[C@H](O)[C@@H](C)CC)/C=C/[C@H]1OC(=O)C=C[C@@H]1C		< 0.01
Nc1ccccc1SC(CC(=O)c1ccccc1)c1cccc([N+](=O)[O-])c1 (stereo not given)	32.2	17.4
O=C(/C=C/c1ccc([N+](=O)[O-])cc1)c1ccc(NCc2nc3ccccc3[nH]2)cc1	26.3	
Cc1cccc(C)c1NC(=O)CCCC(=O)C1/C(=N/NC(=O)CC#N)CCC/C1=N\NC(=O)CC#N (stereo not given)	> 100	
COc1ccc2nc(NC(=O)CSc3nnc4n3S(=O)(=O)c3ccccc3N4c3ccccc3)sc2c1	> 100	> 100

Structure (SMILES)	TGI [µM]	GI50 [µM]
O=c1ccc2ccccc2cc1[O-].O=c1ccc2ccccc2cc1[O-].[O]=[U+2]=[O]	> 100	30.1
Cc1ccc(-n2c3nc(=O)[nH]c(=O)c-3cc3cc([N+](=O)[O-])ccc32)cc1	50.2	21.1
COC(=O)C(CCCN1C(=O)c2ccccc2C1=O)C(=O)OC	> 100	
COc1nc(NC2OC(COC(C)=O)C(OC(C)=O)C(OC(C)=O)C2OC(C)=O)c2c(OC(C)=O)cc(=O)oc2n1 (stereo not given)	> 100	
CC(C)(C)c1cc2c(O)c3cccc4c(=O)c5cccc6c5-c(c34)c2c(c1)c6=O	> 100	
COc1cc(/C(C#N)=C/c2nc3c(N4CCOCC4)nc(Cl)nc3n2C)cc(OC)c1OC	> 100	< 0.01
O=C1C=CC(=O)c2nc3c(cc21)CCC3	> 100	
O=S(=O)(N/N=C/c1cccc(/C=N/NS(=O)(=O)c2ccccc2)c1)c1ccccc1	> 100	
CCCCN(CCCC)C(=O)C(=O)C(C(=O)c1ccc(OC)cc1)c1ccc(OC)cc1 (stereo not given)	> 100	
C=C(C)CCOC(c1ccccc1)(c1ccccc1)c1ccccc1	> 100	
COc1ccc(C)cc1-c1cc(Sc2ccccc2)c(-c2cc(C)ccc2OC)o1	> 100	
CCn1c(-c2nonc2N)nc2c(C#CC(C)(C)O)nc(OC[C@@H](N)c3ccccc3)cc21	15.1	7.92
Cn1ccc2c3c(Oc4ccc(NC(N)=O)cc4)ccnc3ccc21	> 100	> 100
CC(=O)O/N=C(/C)c1ccccc1O	> 100	
CC(=O)OCCOCNC(=S)N/N=C(\C)c1cnccn1	40.5	
O=C(Nc1ccccc1-c1nn(C(=S)Nc2ccccc2)c(=S)n(C(=S)Nc2ccccc2)c1=O)C(F)(F)F	> 100	
O=c1c(-c2ccccc2)c2oc(c1-c1ccccc1)CSCc1cccc(c1)CSC2	> 100	
CN(C)CCn1c2c3ccccc3ccc2c2oc(=O)c3ccccc3c21	90.4	

Tested on: RXF 393 renal
Experiment: inhibition of tumour cell growth, NCI panel, 48 h

Structure (SMILES)	TGI	GI50
COC(=O)CC(c1ccccc1)C1(c2ccccc2)SCCS1 (stereo not given)	> 290 µM	
CCOC(=O)C1=C(C(=O)OCC)C2c3ccccc3C=CN2C(C(=O)OCC)=C(SC)S1 (stereo not given)	> 100 µM	
CCCCCCCCCCCCCCCC[N+](C)(C)Cc1ccccc1	1.97 µM and 1.35 µM	0.606 µM and 0.306 µM
CC(=O)NNc1nc(C)c(C(=O)/C=C/c2ccc(NC(C)=O)cc2)s1	> 100 µM	
NC(=O)c1ccccc1NC(=O)C(=O)C(C(=O)c1ccc(Cl)c(Cl)c1)C1OC(=O)c2ccccc21 (stereo not given)	45.7 µM	
S=c1sc2c(n1-c1ccccc1)NC=NC2S (stereo not given)	> 100 µM	
Cc1ccc(/C=C/C(=O)CCN(C)C)cc1	41.6 µM	
